Data taken from patent publication US7470707B2, “Crystalline monohydrate clopidogrel naphthalenedisulfonate and process of preparation” (Hanmi Pharm. Co., Ltd, priority 2004, dated 2008).
Where a name gives a salt, the structure may show the parent alone. Read-outs that look alike come from different tables or passages of the source.

Tests used:
[1] = system: platelet aggregation induced by collagen; settings: Collagen (5 μg/ml), washed platelets of female Sprague-Dawley rats after oral dose corresponding to clopidogrel 15.3 mg/kg
Procedure: (§1) The pharmacological activities for preventing platelet aggregation of the clopidogrel hydrogen sulfate obtained in Comparative Example 1, and the inventive clopidogrel 2-naphthalenesulfonate and clopidogrel 1,5-naphthalenedisulfonate monohydrate obtained in Examples 1 and 2, respectively, were tested using rat blood in accordance with the standard method (see Born G.V.R & Cross, J. Physiol. 168: 178-195, 1963; 0. Takahashi, Food & Chemical Toxicology 38: 203-218, 2000). The platelet aggregation inhibition test was performed ex vivo, and the inhibitory activities of the acid addition salts against platelets aggregation induced by adenosine-diphosphate (ADP), collagen and thrombin, respectively, were measured.
(§2) Twenty 11 to 12-weeks old female Sprague-Dawley rats (average weight: 270±25 g) were divided into four groups each consisting of five rats, and each group of rats was orally administered with 20.0 mg/kg of clopidogrel hydrogen sulfate (15.3 mg/kg as clopidogrel), 25.2 mg/kg of clopidogrel 2-naphthalenesulfonate, and 22.6 mg/kg of clopidogrel 1,5-naphthalenedisulfonate monohydrate dissolved in 1% DMSO based on a volume of 10 ml/kg body weight. For the control group of rats, only 1% DMSO solution was administered.
(§3) Blood samples were taken using a syringe pre-charged with 3.8% citric acid solution from the abdominal artery of the animals under anesthesia, and the blood samples were centrifuged at 4° C. and 1,000 rpm for 10 minutes to separate platelet-rich plasma (PRP). The separated plasma was further centrifuged four times at 4° C. and 1,000 rpm to obtain PRP for test. A portion of PRP was further centrifuged at 4° C. and 3,000 rpm for 10 minutes to prepare precipitated platelet, and the precipitated platelet was washed with a buffer (138 mM NaCl, 2.7 mM KCl, 12 mM NaHCO3, 0.36 mM NaH2PO4, 5.5 mM glucose, 1 mM EDTA: pH 6.5). Then, the platelet was suspended in a buffer (138 mM NaCl, 2.7 mM KCl, 12 mM NaHCO3, 0.36 mM NaH2PO4, 0.49 mM MgCl2, 0.25% gelatin, 5.5 mM glucose: pH 7.4) such that the optical density (OD) value at 260 nm corresponded to a number of platelet which is about 1×10^8.
(§4) To induce platelet aggregation, ADP standard solution was added to the above PRP to determine the concentration until the final concentration of the ADP became 5 μM. Further, a collagen standard solution (final concentration 5 μg/ml) and thrombin standard solution (final concentration 0.1 U/ml) was added to the above washing platelet solution to induce platelet aggregation. Each of the samples was stirred at 37° C. and 900 rpm to measure the amount of platelet aggregation using a aggregometer (Chrono-log Platelet Aggregometer). The degrees of platelet aggregation and inhibition were calculated using formulae 1 and 2, and the results are shown in Table 8. Degree of aggregation (%)=[(measured aggregation height)/(aggregation height when 100% was aggregated)]×100 <Formula 1> Degree of inhibition (%)=[(aggregation height of control group)−(aggregation height of drug administration group)]/(aggregation height of control group)×100 <Formula 2>

[2] = system: platelet aggregation induced by adenosine-diphosphate (ADP); settings: ADP (5 μM), PRP of female Sprague-Dawley rats after oral dose corresponding to clopidogrel 15.3 mg/kg
Procedure: as §1, §2, §3, §4

[3] = system: platelet aggregation induced by thrombin; settings: Thrombin (0.1 U/ml), washed platelets of female Sprague-Dawley rats after oral dose corresponding to clopidogrel 15.3 mg/kg
Procedure: as §1, §2, §3, §4

Compound: COC(=O)[C@H](c1ccccc1Cl)N1CCc2sccc2C1 [1,5-Naphthalenedisulfonate monohydrate, Clopidogrel 1,5-naphthalenedisulfonate Monohydrate]
- Aggregation ratio ([1]; Monohydrate): 3.75 ± 0.40%
- Inhibition ratio ([1]; Monohydrate): 95.3%
- Aggregation ratio ([2]; Monohydrate): 4.12 ± 0.14%
- Inhibition ratio ([2]; Monohydrate): 88.5%
- Aggregation ratio ([3]; Monohydrate): 23.61 ± 1.43%
- Inhibition ratio ([3]; Monohydrate): 71.5%

Compound: COC(=O)[C@H](c1ccccc1Cl)N1CCc2sccc2C1 [2-Naphthalenesulfonate, Clopidogrel 2-naphthalenesulfonate]
- Aggregation ratio [1]: 1.88 ± 0.25%
- Inhibition ratio [1]: 97.9%
- Aggregation ratio [2]: 2.94 ± 0.21%
- Inhibition ratio [2]: 91.8%
- Aggregation ratio [3]: 15.00 ± 1.71%
- Inhibition ratio [3]: 81.9%

Compound: COC(=O)[C@H](c1ccccc1Cl)N1CCc2sccc2C1 [Hydrogen sulfate, Clopidogrel Hydrogen Sulfate, reference compound]
- Aggregation ratio [1]: 12.19 ± 1.70%
- Inhibition ratio [1]: 84.8%
- Aggregation ratio [2]: 5.00 ± 0.60%
- Inhibition ratio [2]: 86.1%
- Aggregation ratio [3]: 27.22 ± 1.52%
- Inhibition ratio [3]: 67.1%
